Measurements as given in patent publication US20130090364A1, “ANALOGUES FOR THE TREATMENT OR PREVENTION OF FLAVIVIRUS INFECTIONS” (priority 2010, published 2013).
Read-outs that look alike come from different tables or passages of the source.

Assays:
[1] = tested on: HCV (1b) RNA replication (replicon I389Luc-ubi-neo/NS3-3′/5.1); test: Cell-based luciferase reporter HCV (1b) RNA replication assay, Huh-ET cells; settings: for IC50 / EC50: Hepatitis C virus; for IC50 / IC99 (nM) (1b): Table 4, sub-genomic replicon 1b cell line; for EC50: Table 2A, HCV genotype 1b replicon
Excerpt: Cell-Based Luciferase Reporter HCV (Ib) RNA Replication Assay Cell Culture
Replicon cell lines Huh-5.2 are derived from the Huh-7 hepatocarcinoma cell line are maintained in culture as generally described in Krieger, N; Lohmann, V; Bartenschlager, R. Enhancement of hepatitis C virus RNA replication by cell culture-adaptive mutations. J. Virol. 2001, 75, 4614-4624. The Huh-5.2 cells contain the highly cell culture-adapted replicon I389Luc-ubi-neo/NS3-3′/5.1 construct that carries, in addition to the neomycin gene, an integrated copy to the firefly luciferase gene (Krieger, N; Lohmann, V; Bartenschlager, R. Enhancement of hepatitis C virus RNA replication by cell culture-adaptive mutations. J. Virol. 2001, 75, 4614-4624). This cell line allows measurement of HCV RNA replication and translation by measuring luciferase activity. It has been previously shown that the luciferase activity tightly follows the replicon RNA level in these cells (Krieger, N; Lohmann, V; Bartenschlager, R. Enhancement of hepatitis C virus RNA replication by cell culture-adaptive mutations. J. Virol. 2001, 75, 4614-4624). The Huh-ET cell line has the same features as those mentioned for Huh-5.2 cell line, except that ET cells are more robust and contain an adaptative mutation in the HCV NS4B gene instead of NSSA. Both cell lines are maintained in cultures at a sub-confluent level (<85%) as the level of replicon RNA is highest in actively proliferating cells. The culture media used for cell passaging consist of DMEM (Gibco BRL Laboratories, Mississauga, ON, Canada) supplemented with 10% foetal bovine serum with 1% penicilin/streptomycin, 1% glutamine, 1% sodium pyruvate, 1% non-essential amino acids, and 180 μg/ml of G418 final concentration. Cells are incubated at 37° C., in an atmosphere of 5% CO2 and passaged twice a week to maintain sub-confluence.
Approximately 3000 viable Huh-ET cells (100 μl) are plated per well in a white opaque 96-well microtiter plate. The cell culture media used for the assay is the same as described above except that it contains no G418 and no phenol red. After an incubation period of 3-4 hours at 37° C. in a 5% CO2 incubator, compounds (100 μl) are added at various concentrations. Cells are then further incubated for 4 days at 37° C. in a 5% CO2 incubator. Thereafter, the culture media is removed and cells are lysed by the addition of 95 μL of the luciferase buffer (luciferin substrate in buffered detergent). Cell lysates are incubated at room temperature and protected from direct light for at least 10 minutes. Plates are read for luciferase counts using a luminometer (Wallac MicroBeta Trilux, Perkin Elmer™, MA, USA).
Curves are fitted to data points using nonlinear regression analysis, and IC50s are interpolated from the resulting curve using GraphPad Prism software, version 2.0 (GraphPad Software Inc., San Diego, Calif., USA).

[2] = tested on: sub-genomic HCV replicon of genotype 1a; test: ELISA (NS5A protein level) in sub-genomic replicon 1a cell line W11.8; format: cell-based; settings: for IC50: W11.8, Table 4; for IC99 (nM) (1a): Table 4
Excerpt: Activity Determination Using the ELISA and the Sub-Genomic Replicon 1a Cell Line
The cell line W11.8 containing the sub-genomic HCV replicon of genotype 1a is used to determine the potency of the drugs. The RNA replication in presence of different drug concentrations is indirectly measured in this cell line by the level of NS5A protein content upon drug treatment for four days. It is shown that the level of the NS5A protein correlates well with the level of HCV RNA in the replicon cell line. Cells are split twice a week in order to keep the confluence state below 85% of the culture flask surface area. The culture media used for cell passaging consists of DMEM-10% foetal bovine serum with 100 UI/mL penicillin, 100 μg/mL streptomycin, 2 mM glutamine, 1 mM sodium pyruvate, non-essential amino acids (1×) and 600 μg/mL of G418 final concentrations. Monolayer of the W11.8 cells is trypsinized and cells are counted. Cells are diluted at 50,000 cells/mL with complete DMEM without G418, then approximately 5,000 viable cells (100 μL) are plated per well in a white opaque 96-well microtiter plate. After an incubation period of 2-4 hours at 37° C. in a 5% CO2 incubator, compounds are added at various concentrations. Drugs are resuspended in DMSO at a stock concentration of 10 mM. Then, drugs are serially diluted at twice the final concentration in the same medium. One volume (100 μL) of each drug dilution is then added to each well that contains cells. A control compound is used as an internal standard for each plate assay. Sixteen wells are used as control (0% inhibition) without drug. […] Values from 100% inhibited wells were averaged and used as the background value. Cells are further incubated for four days at 37° C. in a 5% CO2 incubator. Following the incubation time of four days, the media is removed and wells are washed once with 150 μL of PBS at room temperature for five minutes. Cells are then fixed for five minutes using 150 μL per well of cold (−20° C.) fixative solution (50% methanol/50% acetone mix). Cells are then washed twice with 150 μL of PBS (phosphate buffered saline) per well, following the addition of 150 μL of blocking solution, cells are incubated for one hour at 37° C. to block non-specific sites. The blocking solution is removed and cells are washed twice with 150 μL of PBS per well and once with 150 μL of PBSTS solution (PBS/0.1% Triton X-100/0.02% SDS) per well. Then, 50 μL of mouse monoclonal anti-NS5A antibody (Santa Cruz, Cat. No. sc-52417) is added in each well, diluted 1/1,000 in the blocking solution and incubated at 4° C. overnight. Next day, media is removed and plates are washed five times with 150 μL of PBS per well with five-minute incubations at room temperature. Then 50 μL per well of peroxidase-conjugated donkey anti-mouse antibody (Jackson Immunoresearch, Cat. No. 715-036-150) diluted 1/10,000 in the blocking solution is added and incubated at room temperature for three hours on a shaker (500 rpm). Plates are washed four times with 150 μL of PBSTS solution per well and once with 150 μL of PBS. Then, substrate solution (100 μl, SuperSignal ELISA Pico Chemiluminescent Substrate, Fisher Cat. No. 37069) is added in each well and plates are incubated 60 minutes at room temperature prior to reading the luminescence (relative light units) on the Analyst HT plate reader. The percentage of inhibition at each drug concentration tested (in duplicate) is calculated.

[3] = Hepatitis C virus, W11.8, read-out: EC50 (μM) (1a), Table 3

COC(=O)N[C@H](C(=O)N1C[C@@H](C)C[C@H]1c1nc2sc(-c3ccc(-c4ccc5[nH]c([C@@H]6CC[C@H](C)N6C(=O)[C@@H](NC(=O)OC)C(C)C)nc5c4)cc3)cc2[nH]1)C(C)C [Compound 2c] was tested, and the IC50 [1] was 0.005 nM, the “IC99 (nM) (1b)” value [1] was 0.303 nM and the IC50 ([2]; Hepatitis C virus) was 0.619 nM. The “IC99 (nM) (1a)” value [2] was 10.038 nM.

COC(=O)NC(C(=O)N1C[C@@H](C)C[C@H]1c1nc2sc(-c3ccc(-c4ccc5[nH]c([C@@H]6C[C@H](C)CN6C(=O)[C@@H](NC(=O)OC)C(C)C)nc5c4)cc3)cc2[nH]1)C(C)C (stereo partly shown) [Compound 1c] was tested, and the IC50 [1] was 0.011 nM, the “IC99 (nM) (1b)” value [1] was 0.207 nM and the IC50 ([2]; Hepatitis C virus) was 1.65 nM. For the same compound, the “IC99 (nM) (1a)” value [2] was 11.155 nM.

COC(=O)N[C@H](C(=O)N1C[C@@H](C)C[C@H]1c1nc2sc(C#CC#Cc3cc4[nH]c([C@@H]5C[C@H](C)CN5C(=O)[C@@H](NC(=O)OC)C(C)C)nc4s3)cc2[nH]1)C(C)C [Compound 4b] was tested, and the EC50 [2, 3] was 0.184 µM.

Compound COC(=O)N[C@H](C(=O)N1CCC[C@H]1c1nc2sc(C#CC#Cc3cc4[nH]c([C@@H]5CCCN5C(=O)[C@@H](NC(=O)OC)C(C)C)nc4s3)cc2[nH]1)C(C)C [Compound 3b] has an EC50 [2, 3] of 0.282 µM.

With COC(=O)N[C@H](C(=O)N1CCCC1c1nc2cc(C#Cc3cc4[nH]c([C@@H]5CCCN5C(=O)[C@@H](NC(=O)OC)C(C)C)nc4s3)ccc2[nH]1)C(C)C (stereo partly shown) [Compound 1] the EC50 [1] was at most 5 nM.

COC(=O)N[C@H](C(=O)N1C[C@@H](C)C[C@H]1c1nc2cc(C#Cc3cc4[nH]c([C@@H]5C[C@H](C)CN5C(=O)[C@@H](NC(=O)OC)C(C)C)nc4s3)ccc2[nH]1)C(C)C [Compound 2b] was tested, and the EC50 [2, 3] was 0.0403 µM and the EC50 ([2]; read-out: EC50 (μM) (1a), Table 3) was 0.0377 µM.

Compound COC(=O)N[C@H](C(=O)N1C[C@@H](C)C[C@H]1c1nc2sc(-c3ccc(-c4ccc5[nH]c([C@@H]6CC[C@H](C)N6C(=O)[C@@H](NC(=O)OC)C(C)C)nc5c4)cc3)cc2[nH]1)C(C)C [Compound 7] has an EC50 [1] of at most 5 nM.

In the case of COC(=O)N[C@H](C(=O)N1C[C@@H](C)C[C@H]1c1nc2sc(-c3ccc(-c4ccc(-c5cc6[nH]c([C@@H]7C[C@H](C)CN7C(=O)[C@@H](NC(=O)OC)C(C)C)nc6s5)s4)cc3)cc2[nH]1)C(C)C [Compound 30], the EC50 [1] is reported as at most 5 nM.

Work on COC(=O)N[C@H](C(=O)N1C[C@@H](C)C[C@H]1c1nc2cc(-c3cc4sc(-c5cc6[nH]c([C@@H]7C[C@H](C)CN7C(=O)[C@@H](NC(=O)OC)C(C)C)nc6s5)cc4s3)ccc2[nH]1)C(C)C [Compound 27] yielded an EC50 [1] of at most 5 nM.

Work on COC(=O)N[C@H](C(=O)N1C[C@@H](C)C[C@H]1c1ncc(C#Cc2ccc(-c3ccc(-c4cc5[nH]c([C@@H]6C[C@H](C)CN6C(=O)[C@@H](NC(=O)OC)C(C)C)nc5s4)cc3)cc2)[nH]1)C(C)C [Compound 15] yielded an EC50 [1] of at most 5 nM.

COC(=O)N[C@H](C(=O)N1C[C@@H](C)C[C@H]1c1ncc(C#Cc2ccc(-c3cc4[nH]c([C@@H]5C[C@H](C)CN5C(=O)[C@@H](NC(=O)OC)C(C)C)nc4s3)cc2)[nH]1)C(C)C [Compound 12] was tested, and the EC50 [1] was at most 5 nM.

For COC(=O)N[C@H](C(=O)N1CCCC1c1nc2cc(C#Cc3cc4[nH]c([C@@H]5CCCN5C(=O)[C@@H](NC(=O)OC)C(C)C)nc4s3)ccc2[nH]1)C(C)C (stereo partly shown) [Compound 1b], the EC50 [2, 3] was 0.828 µM.

In the case of COC(=O)N[C@H](C(=O)N1C[C@@H](C)C[C@H]1c1nc2sc(-c3ccc(-c4ccc5nc([C@@H]6CC[C@H](C)N6C(=O)[C@@H](NC(=O)OC)C(C)C)oc5c4)cc3)cc2[nH]1)C(C)C [Compound 8], the EC50 [1] is reported as at most 5 nM.

For COC(=O)N[C@H](C(=O)N1C[C@@H](C)C[C@H]1c1nc2cc(-c3ccc(-c4cc5[nH]c([C@@H]6C[C@H](C)CN6C(=O)[C@@H](NC(=O)OC)C(C)C)nc5s4)cc3)ccc2[nH]1)C(C)C [Compound 13], the EC50 [1] was at most 5 nM.

With COC(=O)N[C@H](C(=O)N1C[C@@H](C)C[C@H]1c1ncc(-c2ccc(-c3cc4sc(-c5cc6[nH]c([C@@H]7C[C@H](C)CN7C(=O)[C@@H](NC(=O)OC)C(C)C)nc6s5)cc4s3)cc2)[nH]1)C(C)C [Compound 26] the EC50 [1] was at most 5 nM.
